Where two headings read alike, the source gives them in different places.
Molecular target: aggregated MBP-HTT(1-89)Q46-His(6×) (Exonl-Q46) protein (Q46 protein aggregates) (Homo sapiens (Human), UniProt P42858, INS38QQQQQQQQQQQQQQQQQQQQQQQQQ)
Experiment: Q46 Radioligand Binding Assay
Settings: read-out: Q46_RBA EC50_
Procedure: Q46 Radioligand Binding Assay
For radioligand binding assays (RBA) MBP-HTT(1-89)Q46-His(6×) (“Exonl-Q46”) protein was generated based on a previous publication (Scherzinger et al. Cell, Vol. 90, 549-558, Aug. 8, 1997). For experiments 30 μM MBP-Exonl-Q46 was incubated with 150 μg/mL thrombin in assay buffer (150 mM NaCl, 50 mM Tris pH 8.0) and 2 mM CaCl2 for 16 hours at 37° C. Aggregated Exonl-Q46 was pelleted by centrifugation for 5 minutes at 13,000 rpm in a bench top centrifuge and re-dissolved in the same volume of assay buffer. Test compounds were prepared by titration in DMSO at 11 concentrations from 63 μM to 2 nM. For the RBA, Q46 protein aggregates and test compounds were pre-incubated in assay buffer for 20 minutes at room temperature, in 100 μL/well in a 96-well plate (pp, round bottom). Then, ligand was added in 50 μL/well and incubated for 60 minutes at 37° C. Final assay concentrations were 1 μM to 30 μM test compound, 1 μM Exonl-Q46 protein (equivalent monomer concentration) and 0.3 nM ligand [^3H3-methyl]-5-((5-methoxypyridin-2-yl)methoxy)-2-(pyrazin-2-yl)benzo[d]oxazole. Samples were transferred onto GF/B filter plates and washed 2× with 200 μL PBS using a Filtermate Harvester. After drying filter plates for 1 hour at 55° C., the back of the plates were sealed with foil and 30 μL/well scintillation fluid (Packard MicroScint 40) added, incubated for 15 minutes in the dark and counted in a MicroBeta reader. For analysis, replicate data from independent assay plates were normalized towards 0% and 100% inhibition using control wells of vehicle (0% inhibition) and 1 μM unlabelled [^3H3-methyl]-5-((5-methoxypyridin-2-yl)methoxy)-2-(pyrazin-2-yl)benzo[d]oxazole (100% inhibition). IC50 values were determined with a sigmoidal inhibition model with four variables (top, bottom, slope, IC50) in a global fit using the normalized replicate data.

[1] = displacement of 0.3 nM [3H3-methyl]-5-((5-methoxypyridin-2-yl)methoxy)-2-(pyrazin-2-yl)benzo[d]oxazole from 1 μM Exonl-Q46 aggregates, method calls the values IC50
[2] = same radioligand displacement on Exonl-Q46 aggregates

aggregated MBP-HTT(1-89)Q46-His(6×) (Exonl-Q46) protein (Q46 protein aggregates), sequence (P42858 other isoform, or with tags, fused parts or gaps, stated change not applied): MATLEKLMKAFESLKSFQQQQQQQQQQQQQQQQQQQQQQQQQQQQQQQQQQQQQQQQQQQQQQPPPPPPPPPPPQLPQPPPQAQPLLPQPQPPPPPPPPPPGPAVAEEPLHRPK

SMILES	EC50 [1]	EC50 [2]
COc1ccc(COc2ccc3c(c2)CN(C(=O)c2ccc(OC)nc2)CC3)nc1 [Example 1, 7-[(5-Methoxypyridin-2-yl)methoxy]-2-(6-methoxypyridine-3-carbonyl)-1,2,3,4-tetrahydroisoquinoline]	1.24 nM	< 100 nM
COc1ccc(COc2ccc3c(c2)CN(C(=O)c2ccc(=O)n(C)n2)CC3)nc1 [Example 1.1]	7.75 nM	< 100 nM
COc1ccc(COc2ccc3c(c2)CCN(C(=O)c2ccc(OC)nn2)C3)nc1 [Example 1.2]	48.9 nM	< 100 nM
COc1ccc(COc2ccc3c(c2)CCN(C(=O)c2ccc(=O)n(C)n2)C3)nc1 [Example 1.3]	46.4 nM	< 100 nM
COc1ccc(COc2ccc3c(c2)CCN(C(=O)c2ccc(OC)nc2)C3)nc1 [Example 1.4]	8.48 nM	< 100 nM
COc1ccc(COc2ccc3c(c2)CN(C(=O)c2cncc(OC)c2)CC3)nc1 [Example 1.5]	5.59 nM	< 100 nM
COc1ccc2c(c1)CN(C(=O)c1ccc(OC)nc1)CC2 [Example 1.6]	333 nM	100 to 500 nM
COc1ccc(COc2ccc3c(c2)CN(C(C)=O)CC3)nc1 [Example 1.7]	96.5 nM	< 100 nM
COc1ccc(COc2ccc3c(c2)CN(C(=O)c2cnc(OC)cn2)CC3)nc1 [Example 1.8]	1.2 nM	< 100 nM
COc1ccc(COc2ccc3c(c2)CN(C(=O)c2cccnc2)CC3)nc1 [Example 1.9]	27.8 nM	< 100 nM
COc1ccc(COc2ccc3c(c2)CN(C(=O)c2ccc(OC)cn2)CC3)nc1 [Example 1.10]	5 nM	< 100 nM
COc1ccc(COc2ccc3c(c2)CN(C(=O)c2ccc(OC)nn2)CC3)nc1 [Example 1.11]	5.2 nM	< 100 nM
COc1ccc(COc2cccc3c2CCN(C(=O)c2ccc(OC)nc2)C3)nc1 [Example 1.12]	34.1 nM	< 100 nM
COc1ccc(COc2cccc3c2CN(C(=O)c2ccc(OC)nc2)CC3)nc1 [Example 1.13]	87.5 nM	< 100 nM
COc1ccc(COc2ccc3c(c2)CN(C(=O)c2ccc(N(C)C)nc2)CC3)nc1 [Example 1.14]	1.8 nM	< 100 nM
COc1ccc(COc2ccc3c(c2)CN(C(=O)C2CCN(C)CC2)CC3)nc1 [Example 1.15]	951 nM	> 500 nM
COc1ccc(COc2cnc3c(c2)CN(C(=O)c2ccc(OC)nc2)CC3)nc1 [Example 1.16]	5.73 nM	< 100 nM
COc1ccc(COc2ccc3c(c2)CN(C(=O)c2ccc(C(F)(F)F)nc2)CC3)nc1 [Example 1.17]	2.54 nM	< 100 nM
COc1ccc(COc2cnc3c(c2)CN(C(=O)c2cncc(OCCF)c2)CC3)nc1 [Example 1.18]	65 nM	< 100 nM
COc1ccc(COc2ccc3c(c2)CN(C(=O)c2ccc(=O)n(CCCF)c2)CC3)nc1 [Example 1.19]	5.45 nM	< 100 nM
COc1ccc(COc2ccc3c(c2)CN(C(=O)c2ccc(=O)n(CCF)n2)CC3)nc1 [Example 1.20]	4.24 nM	< 100 nM
COc1ccc(COc2cnc3c(c2)CN(C(=O)c2ccnc(OC)c2)CC3)nc1 [Example 1.21]	16.3 nM	< 100 nM
COc1ccc(COc2ccc3c(c2)CN(C(=O)c2cnc(OC)nc2)CC3)nc1 [Example 1.22]	2.1 nM	< 100 nM
COc1ccc(COc2cnc3c(c2)CN(C(=O)c2ccnc(OCCF)c2)CC3)nc1 [Example 1.23]	23 nM	< 100 nM
COc1ccc(COc2ccc3c(c2)CN(C(=O)c2cnn(C)c2)CC3)nc1 [Example 1.24]	7.87 nM	< 100 nM

SMILES	EC50 [1]	EC50 [2]
COc1ccc(COc2ccc3c(c2)CN(C(=O)c2ccc(C)nc2)CC3)nc1 [Example 1.25]	2.91 nM	< 100 nM
COc1ccc(C(=O)N2CCc3ccc(OCc4ccc(OC)cn4)cc3C2)cc1 [Example 1.26]	1.78 nM	< 100 nM
COc1ccc(C(=O)N2CCc3ccc(OCc4cnn(C)c4)cc3C2)cn1 [Example 1.27]	52.4 nM	< 100 nM
COc1ccc(COc2cnc3c(c2)CN(C(=O)c2cncc(OC)c2)CC3)nc1 [Example 1.28]	29.4 nM	< 100 nM
COc1ccc(COc2cnc3c(c2)CN(C(=O)c2ccn(CCF)c(=O)c2)CC3)nc1 [Example 1.29]	271 nM	100 to 500 nM
COc1ccc(COc2ccc3c(c2)CNCC3)nc1 [Example 1.30, 7-[(5-Methoxypyridin-2-yl)methoxy]-1,2,3,4-tetrahydroisoquinolin-2-ium chloride]	1000 nM	> 500 nM
COc1ccc(COc2ccc3c(c2)C(=O)N(Cc2ccc(OC)nc2)CC3)nc1 [Example 2, 7-[(5-Methoxypyridin-2-yl)methoxy]-2-[(6-methoxypyridin-3-yl)methyl]-1,2,3,4-tetrahydroisoquinolin-1-one]	98.5 nM	< 100 nM
COc1ccc(COc2ccc3c(c2)CN(c2ncc(OC)cn2)CC3)nc1 [Example 3, 7-[(5-Methoxypyridin-2-yl)methoxy]-2-(5-methoxypyrimidin-2-yl)-1,2,3,4-tetrahydroisoquinoline]	1.26 nM	< 100 nM
COc1ccc(COc2ccc3c(c2)CN(C(=O)N2CCN(C)CC2)CC3)nc1 [Example 4, 7-[(5-Methoxypyridin-2-yl)methoxy]-2-(4-methylpiperazine-1-carbonyl)-1,2,3,4-tetrahydroisoquinoline]	73.2 nM	< 100 nM
COc1ccc(NC(=O)N2CCc3ccccc3C2)cn1 [Example 4.1]	1000 nM	> 500 nM
COc1ccc(COc2ccc3c(c2)CN(C(=O)Nc2ccc(OC)nc2)CC3)nc1 [Example 4.2]	6.92 nM	< 100 nM
COc1ccc(COc2ccc3c(c2)CN(C(=O)N2CCc4cc(OC)ncc4C2)CC3)nc1 [Example 4.3]	3.67 nM	< 100 nM
COc1ccc(COc2ccc3c(c2)CN(C(=O)N2CC4(COC4)C2)CC3)nc1 [Example 4.4]	1000 nM	> 500 nM
COc1ccc(COC(=O)N2CCc3ccccc3C2)cn1 [Example 5, (6-Methoxypyridin-3-yl)methyl 1,2,3,4-tetrahydroisoquinoline-2-carboxylate]	1000 nM	> 500 nM
COc1ccc(COc2ccc3c(c2)CN(C(=O)OCc2ccc(OC)nc2)CC3)nc1 [Example 5.1]	1.65 nM	< 100 nM
COc1ccc(COc2ccc3c(c2)CN(c2cncc(OC)c2)CC3)nc1 [Example 6.1]	2.65 nM	< 100 nM
COc1ccc(COc2cnc3c(c2)CN(c2ncc(OC)cn2)CC3)nc1 [Example 6.2]	1.97 nM	< 100 nM
COc1ccc(COc2cnc3c(c2)CN(c2cncc(OC)c2)CC3)nc1 [Example 6.3]	7.86 nM	< 100 nM
COc1ccc(COc2ccc3c(c2)CN(c2ccc(OC)nc2)CC3)nc1 [Example 6]	2.21 nM	< 100 nM
COc1ccc(COc2ccc3c(c2)CN(Cc2ccc(OC)nc2)CC3)nc1 [Example 7]	137 nM	100 to 500 nM
COc1ccc(COc2ccc3c(c2)CN(c2ccc(OC)cn2)CC3)nc1 [Example 8, 2-(5-Methoxypyridin-2-yl)-7-[(5-methoxypyridin-2-yl)methoxy]-1,2,3,4-tetrahydroisoquinoline]	1.79 nM	< 100 nM
COc1ccc(COc2ccc3c(c2)CN(c2cc(OC)ccn2)CC3)nc1 [Example 8.1]	1.7 nM	< 100 nM
COc1ccc(COc2ccc3c(c2)CN(c2cccc(OC)n2)CC3)nc1 [Example 8.2]	2.02 nM	< 100 nM
COc1ccc(COc2ccc3c(c2)C(C)N(C(=O)c2ccc(OC)nc2)CC3)nc1 (stereo not shown) [Example 9, 7-[(5-Methoxypyridin-2-yl)methoxy]-2-(6-methoxypyridine-3-carbonyl)-1-methyl-1,2,3,4-tetrahydroisoquinoline]	14.5 nM	< 100 nM
COc1ccc(COc2ccc3c(c2)CN(c2ccc(OC)nc2)C(=O)C3)nc1 [Example 10, 7-[(5-Methoxypyridin-2-yl)methoxy]-2-(6-methoxypyridin-3-yl)-1,2,3,4-tetrahydroisoquinolin-3-one]	186 nM	100 to 500 nM

Source: US11992535B2, “Compounds and probes for imaging huntingtin protein” (CHDI Foundation, Inc., priority 2019, dated 2024)
